# Ends that are not written are not given here.
# Columns and labels:
# [1] = biological target: T1, human CXCR3 (CXCR3-NSO transfectants) (Homo sapiens, UniProt P49682); assay: microphysiometer bioassay for CXCR3 activation (extracellular acidification rate); type: cell-based; conditions: 1, 5, 10 mglml ligand pumped for 10 min
# T1 construct: expressed in transfected cells
# T1 sequence (P49682 1-368): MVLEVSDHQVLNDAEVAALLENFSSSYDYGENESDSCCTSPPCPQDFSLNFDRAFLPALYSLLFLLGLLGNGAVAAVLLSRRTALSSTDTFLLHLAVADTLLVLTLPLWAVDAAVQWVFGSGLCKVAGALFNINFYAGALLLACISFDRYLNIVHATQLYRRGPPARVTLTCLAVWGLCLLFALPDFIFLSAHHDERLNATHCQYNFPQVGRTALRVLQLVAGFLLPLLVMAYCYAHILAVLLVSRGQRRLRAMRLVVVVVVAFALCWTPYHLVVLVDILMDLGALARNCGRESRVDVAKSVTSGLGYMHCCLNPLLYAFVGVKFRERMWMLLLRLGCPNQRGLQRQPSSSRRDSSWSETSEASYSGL
# Description: (§1) 5X10^5 CXCR3-NSO transfectant cells and untransfected “BONZO-NSO” cells (negative control) were spotted in the microphysiometer chambers along with agarose and 1, 5, 10 […] anti-CXCR3 (FIG 1a) or IP-10 (FIG 1b) was pumped for 10 min. […] The arrow indicates the time that ligands were added to the cells.
# A stable line transfectant of NSO-1 cells expressing the cDNA for human CXCR3 was prepared according to standard techniques. The surface expression of hu-CXCR3 on the transfectants compared to untransfected parent NSO-1 cells was confirmed by FACS staining using mouse anti-human CXCR3 monoclonal antibody (R&D systems).
# (§2) To establish a bioassay for CXCR3 activation, the CXCR3 transfectant cells were cultured with either human IP-10, or the mouse anti-human CXCR3 antibody, and the physiological response of the cells was measured using a microphysiometer. This machine measures changes in the pH of the extracellular medium of the cell cultures which result from ligand receptor binding on the cell surface. These extracellular acidification rate measurements have previously been used as markers of antigen specific T cell activation and T cell epitope identification. The current assay is used to provide a biological read out for the identification of chemokine or chemokine receptor peptides involved in binding to IP- 10 or agonistic anti-CXCR3 antibody.
# [2] = system: untransfected NSO-1 cells; assay: microphysiometer acidification rate, untransfected negative control cells; type: cell-based; conditions: untransfected NSO-1 (BONZO-NSO) cells
# Description: as §1, §2
# anti-CXCR3 antibody = assay: ELISA binding of receptor-derived peptides to anti-CXCR3 antibody; design: species or system mouse; conditions: peptide coated on plate, antibody 0.5 μg/well, 2 hours
# Description: The ability of these receptor-derived peptides to bind anti-CXCR3 antibody was evaluated using a standard ELISA format. The peptides were dissolved in 0.1 M bicarbonate buffer and coated on a 96 well ELISA plate overnight. The excess peptides were removed and nonspecific binding sites in the wells were blocked by 0.1 % bovine serum albumin. Anti-CXCR3 antibody (0.5 μg/well) was added to these wells and incubated for 2 hours. Excess antibody was removed by washing with PBS. HRP conjugated goat anti-mouse antibody was used as secondary antibody for detection. […] Further support for the conclusion that anti-CXCR3 antibody bound two of the seven receptor-derived peptides was provided by FACS analysis of the same interactions.
# [3] = system: CXCR3 cell line transfectant; assay: FACS analysis: blocking of anti-CXCR3 antibody binding to CXCR3 transfectant; type: cell-based, human
# [4] = system: human CXCR3 SP-4-1 peptide; assay: serum ELISA for antibody response to SP4-1 peptide in vaccinated mice; type: in vivo; conditions: serum of vaccinated SJL mice, bled week 0 and week 5, ELISA
# Description: The mice were bled at week 0 and week 5 and serum was tested by ELISA for the presence of antibodies against the human CXCR3 SP-4-1 peptide. Briefly, the SP4-1 peptide dissolved in 0.1 M sodium bicarbonate buffer was plated on a 96-well ELISA plate overnight. The nonspecific binding sites on the plate were coated with 0.1% bovine serum albumin solution in PBS. The wells were washed and serum (diluted in PBS) was added to the wells and incubated at room temperature for 1.5 hours. The wells were then washed and HRP conjugated anti-mouse immunoglobulin antibody was used to detect the presence of anti-SP4-1 antibodies).
# EAE = assay: prevention of EAE in mice by peptide vaccination; conditions: SP4-1 with CFA s.c. at 21 and 14 days before induction of EAE with PLP 139-151, SJL mice
acidification rate changes [1],binding to anti-CXCR3 antibody (anti-CXCR3 antibody),Substance,acidification rate changes [2],acidification rate changes ([2]; listed as IP-10),inhibition of binding of anti-CXCR3 antibody to CXCR3 transfectants [3],antibody response against SP4-1 peptide [4],mice showing no clinical symptoms of EAE (EAE)
substantial acidification rate changes,–,"human IP-10: human chemokine IP-10, ligand of CXCR3",no change in acidification rate,did not show any change in acidification rate changes,–,–,–
–,nonbinding,DAAVQWVFGSGLCKV-NH2 [SP-2-1],–,–,failed to inhibit binding,–,–
–,substantial binding,PPCPQDFSLNFDRAFLPA-NH2 [SP-1-3],–,–,partial inhibition,–,–
–,substantial binding,DILMDLGALARNCGRESRVDVAKS-NH2 [SP-4-1],–,–,potently blocked binding,show an antibody response against this peptide,7 out of 8

# From patent publication US20010006942A1, “Chemokine receptor peptide vaccines for treatment and prevention of diabetes” (priority 1998, published 2001)
